# In patent publication US9670162B2, “Mitochondrial aldehyde dehyrogenase-2 modulators and methods of use thereof” (The Board of Trustees of the Leland Stanford Junior …, priority 2013, dated 2017):
# Changes are numbered by the printed parent chain.
# Tests used:
# human ALDH2 wild type = target: T1, human ALDH2 wild type (Homo sapiens, UniProt P05091); assay: ALDH2 enzymatic assay (NADH at 340 nm), recombinant wild type enzyme; assay type: biochemical; design: key: −: no activation or inhibition; +: activation less than control 1; ++: activation similar to control 1, within 10%; +++: activation more than control 1 and less than control (compound 161); ++++: activation similar to compound 161, within 10%; conditions: activation relative to benchmarks control 1 and compound 161
# T1 construct: His-tag (pTrcHis vector) (N); made in house; host or cells: E. coli BL21
# T1 sequence (P05091 18-517): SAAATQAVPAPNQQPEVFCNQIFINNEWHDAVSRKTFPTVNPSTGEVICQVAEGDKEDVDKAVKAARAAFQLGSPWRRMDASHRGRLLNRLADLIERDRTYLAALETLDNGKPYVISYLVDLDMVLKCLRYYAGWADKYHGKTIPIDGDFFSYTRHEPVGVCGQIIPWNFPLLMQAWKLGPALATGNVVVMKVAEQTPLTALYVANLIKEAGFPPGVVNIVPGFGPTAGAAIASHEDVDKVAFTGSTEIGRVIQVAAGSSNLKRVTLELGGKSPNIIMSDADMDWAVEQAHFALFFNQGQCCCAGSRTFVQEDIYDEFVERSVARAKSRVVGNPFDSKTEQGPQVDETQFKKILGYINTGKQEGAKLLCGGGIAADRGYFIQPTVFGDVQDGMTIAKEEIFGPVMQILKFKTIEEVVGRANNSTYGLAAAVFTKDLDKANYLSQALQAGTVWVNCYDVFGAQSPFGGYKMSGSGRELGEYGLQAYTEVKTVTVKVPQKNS
# Description: (§1) ALDH2 catalyzes the oxidative reaction of substrate acetaldehyde to acetic acid using NAD^+ as a cofactor. Enzymatic activity, or catalytic rate, of aldehyde dehydrogenase (ALDH2) can be measured spectrophotometrically at UV wavelength λ340 nm by the accumulation of reduced product NADH derived from NAD^+. […] This method is well-established in the literature [e.g. D. K. Rex, W. F. Bosron, J. E. Smialek, T. K. Li, Alcohol Clin Exp Res 9, 147 (1985)].
# (§2) Full-length wild type human ALDH2 cDNA was purchased from ATCC (No. MGC-1806. GenBank ID: BC002967). The 18-amino acid mitochondria transport signal sequence was removed by PCR and cloned into the NheI/HindIII sites of a His-tag vector, pTrcHis, using standard molecular cloning techniques. The human ALDH2* cDNA construct containing the Asian E487K mutation was obtained by site-directed mutagenesis to create the E487K substitution of the wild type ALDH2. Both human clones were designed to express a recombinant protein with the His-tag at the N-terminus of the protein. For the co-expression experiments of human ALDH2 wild type and ALDH2*2 heterotetramers, a wild type ALDH2 gene and a ALDH2 E487K gene were inserted separately into the two multiple cloning sites of pETDuet-1 vector. (Novagen, Calif., USA). All the vectors were transformed into BL21 E. coli host cells and subjected to 0.5 mM IPTG induction for protein expression at 30° C. Purifications of the recombinant proteins by affinity nickel columns (HisTrap, GE Healthy Science, USA) were carried out using standard protocols according to manufacturer's instructions (Novagen, USA).
# (§3) Control 1 and compound 161 are used as benchmarks and the symbols have the following representation: […]
# [1] = target: T2, human ALDH2*2 recombinant mutant enzyme (E487K) (Homo sapiens, UniProt P05091, E504K); assay: ALDH2 enzymatic assay (NADH at 340 nm), recombinant mutant enzyme; assay type: biochemical; design: key: −: no activation or inhibition; +: activation less than control 1; ++: activation similar to control 1, within 10%; +++: activation more than control 1 and less than control (compound 161); ++++: activation similar to compound 161, within 10%; conditions: activation relative to benchmarks control 1 and compound 161
# T2 construct: His-tag (pTrcHis vector) (N); made in house; host or cells: E. coli BL21
# T2 sequence (P05091 18-517 E504K): T1 sequence (P05091 18-517) with E487K
# Description: as §1, §2, §3
SMILES,ALDH2 (wild-type) (human ALDH2 wild type),ALDH2 (mutant) [1]
COc1ccc(CNC(=O)c2c(Cl)cccc2OCC2CC2C)cc1F (stereo not drawn) [Compound 152],+++,+++
O=C(NCc1ccc(F)c(F)c1)c1c(Cl)cccc1Br [Compound 153],+,+
O=C(NCc1ccc(F)c(F)c1)c1c(Cl)cccc1OCC1CC1 [Compound 155],+,++
O=S(=O)(NCc1ccc(F)c(F)c1)c1c(Cl)cccc1Cl [Compound 156],−,+
COc1ccc(CNC(=O)c2c(Cl)ccnc2Cl)cc1F [Compound 157],++,++
COC(=O)c1cccc(Oc2cccc(Cl)c2C(=O)NCc2ccc(OC)c(F)c2)c1 [Compound 158],++,+
COc1ccc(CNC(=O)c2c(OCC3CC3)ccnc2OCC2CC2)cc1F [Compound 162],+,++
COc1ccc(CNS(=O)(=O)c2c(Cl)cccc2NCC2CC2)cc1F [Compound 163],+,+
COc1ccc(CNS(=O)(=O)c2c(Cl)cccc2OCC2CC2)cc1F [Compound 164],+,+
COc1ccc(CNC(=O)c2c(Cl)cccc2OCCN(C)C)cc1F [Compound 165],++,++
COc1ccc(CNC(=O)c2c(OCC3CC3)ccnc2Cl)cc1F [Compound 170],++,+++
COc1cc(CNC(=O)c2c(Cl)ccnc2Cl)ccc1F [Compound 171],−,−
COc1ccc(CNC(=O)c2c(Cl)ccnc2OCC(C)C)cc1F [Compound 183],++,++
COc1ccc(CNC(=O)c2c(Cl)ccnc2OCCN(C)C)cc1F [Compound 184],+,++
O=C(NCc1ccc(OC(F)(F)F)c(F)c1)c1c(Cl)ccnc1OCC1CC1 [Compound 187],+,++
CC(C)Oc1ccc(CNC(=O)c2c(Cl)ccnc2OCC2CC2)cc1F [Compound 188],−,−
O=C(NCc1ccc(OC(F)(F)F)c(F)c1)c1c(Cl)ccnc1NCC1CC1 [Compound 191],+,+
COc1ccc(CNC(=O)c2c(Cl)ccnc2OC2CC2)cc1F [Compound 196],++,++
COc1ccc(CNC(=O)c2c(Cl)ccnc2OC2CCC2)cc1F [Compound 197],++++,++++
COc1ccc(CNC(=O)c2c(Cl)ccnc2OC2CCCC2)cc1F [Compound 199],++,++
CCC(CC)Oc1nccc(Cl)c1C(=O)NCc1ccc(OC)c(F)c1 [Compound 201],++,++
CCC(C)Oc1nccc(Cl)c1C(=O)NCc1ccc(OC)c(F)c1 (stereo not drawn) [Compound 202],++,+
COc1ccc(CNC(=O)c2c(Cl)ccnc2OCC(C)(C)C)cc1F [Compound 203],++,++

# Other lines, results leading:
ALDH2 (wild-type) (human ALDH2 wild type),ALDH2 (mutant) [1],SMILES
+,+,COc1ccc(CNS(=O)(=O)c2c(Cl)cccc2Cl)cc1F [Compound 154]
++,++,COc1ccc(CNC(=O)c2c(Cl)cccc2NCC(C)O)cc1F (stereo not drawn) [Compound 159]
++,++,COc1ccc(CNC(=O)c2c(Cl)ccnc2NCC2CC2)cc1F [Compound 160]
++,++,COc1ccc(CNC(=O)c2c(Cl)cccc2OCC(C)N(C)C)cc1F (stereo not drawn) [Compound 166]
+,+,COc1ccc(CNC(=O)c2c(Cl)cccc2OCC(C)(C)N(C)C)cc1F [Compound 167]
+,+,COc1ccc(CNC(=O)c2c(Cl)cc[n+]([O-])c2Cl)cc1F [Compound 168]
+,+,COc1cc(CNC(=O)c2c(Cl)ccnc2OCC2CC2)ccc1F [Compound 172]
+,++,COc1c(F)cc(CNC(=O)c2c(Cl)ccnc2Cl)cc1F [Compound 173]
+,++,COc1ccc(CNC(=O)c2c(Cl)ccnc2Cl)c(F)c1F [Compound 174]
+,++,O=C(NCc1ccc(OC(F)(F)F)c(F)c1)c1c(Cl)ccnc1Cl [Compound 175]
++,++,COc1cc(F)c(CNC(=O)c2c(Cl)ccnc2Cl)cc1F [Compound 176]
−,−,CC(C)Oc1ccc(CNC(=O)c2c(Cl)ccnc2Cl)cc1F [Compound 177]
++++,++++,COc1ccc(CNC(=O)c2c(Cl)ccnc2OCC2(C)CC2)cc1F [Compound 178]
+,++,COc1ccc(CNC(=O)c2c(Cl)ccnc2OCC2CC2)c(F)c1F [Compound 179]
+,+,O=C(NCc1ccc(F)c(F)c1)c1c(Cl)ccnc1OCC1CC1 [Compound 180]
+,++,COc1ccc(CNC(=O)c2c(Cl)ccnc2NCC(C)C)cc1F [Compound 182]
+,+,COc1ccc(CNC(=O)c2c(Cl)ccnc2NCC(C)O)cc1F (stereo not drawn) [Compound 185]
−,+,CC(C)Oc1ccc(CNC(=O)c2c(Cl)ccnc2NCC2CC2)cc1F [Compound 189]
++++,++++,COc1cc(F)c(CNC(=O)c2c(Cl)ccnc2OCC2CC2)cc1F [Compound 190]
+++,+++,COc1ccc(CNC(=O)c2c(Cl)ccnc2OC)cc1F [Compound 192]
++,++,CCOc1nccc(Cl)c1C(=O)NCc1ccc(OC)c(F)c1 [Compound 193]
+,+++,CCCOc1nccc(Cl)c1C(=O)NCc1ccc(OC)c(F)c1 [Compound 194]
++,++,COc1ccc(CNC(=O)c2c(Cl)ccnc2OC(C)C)cc1F [Compound 195]
+++,+++,COc1ccc(CNC(=O)c2c(Cl)ccnc2OCC2CCC2)cc1F [Compound 198]
++,++,COc1ccc(CNC(=O)c2c(Cl)ccnc2OCC2CCCC2)cc1F [Compound 200]
